In patent US20220154404A1, “Active Materials, Surfaces, Surface Treatments And Methods For Packaging Materials, Boxes, And Containers Using Photosensitizers For Pathogen Reduction” (Mi2 Holdings LLC, priority 2020, published 2022):
Where two headings read alike, the source gives them in different places.

Assays:
[1] = ideal solvent; cited from earlier work
[2] = cited from earlier work; for Epsilon: ideal solvent
[3] = Absorption characteristics of photosensitizers with peak absorptions in visible light (Lambda Max, Epsilon); type: physicochemical; conditions: determined in water
From the text: Examples of photosensitizers having peak absorptions in visible light and their absorption characteristics is: […]

[4] = cited from earlier work

## C=Cc1c(C)c2cc3nc(c(CC(=O)O)c4[nH]c(cc5nc(cc1[nH]2)C(C)=C5CC)c(C)c4C(=O)O)[C@@H](CCC(=O)O)[C@@H]3C [Chlorin e6, chlorin e6]
[1]
  Singlet Oxygen QY: 0.65
[2]; first or only peak
  Lambda Max: 400
[2]; second peak (after the slash)
  Lambda Max: 650
[3]; first or only peak
  Epsilon: 150,000
[3]; second peak (after the slash)
  Epsilon: 30,000

## O=C([O-])c1ccccc1-c1c2cc(Br)c(=O)c(Br)c-2oc2c(Br)c([O-])c(Br)cc12.[Na+].[Na+] [Eosin Y]
[2]; first or only peak
  Lambda Max: 525
  Epsilon: 112,000

## O.O=C([O-])c1ccccc1-c1c2cc(I)c(=O)c(I)c-2oc2c(I)c([O-])c(I)cc12.[Na+].[Na+] [Erythrosin B]
[1]
  Singlet Oxygen QY: 0.63
[2]; first or only peak
  Lambda Max: 530
  Epsilon: 82,000

## CN(C)c1ccc2nc3ccc(=[N+](C)C)cc-3sc2c1 [Methylene Blue, methylene blue (CAS #61-73-4)]
[1]
  Singlet Oxygen QY: 0.52
[2]; first or only peak
  Lambda Max: 665
[3]; first or only peak
  Epsilon: 48,000

## CCNc1cc2[s+]c3cc(NCC)c(C)cc3nc2cc1C.[Cl-] [New MB]
[2]; first or only peak
  Lambda Max: 630
[3]; first or only peak
  Epsilon: 64,000

## O=C([O-])c1c(Cl)c(Cl)c(Cl)c(Cl)c1-c1c2cc(I)c(=O)c(I)c-2oc2c(I)c([O-])c(I)cc12.[Na+].[Na+] [Rose Bengal, Rose Bengal (CAS #632-69-9)]
[1]
  Singlet Oxygen QY: 0.76
[2]; first or only peak
  Lambda Max: 562
  Epsilon: 90,000

## C=Cc1c(C)c2cc3nc(c(CC(=O)N[C@@H](CC(=O)O)C(=O)O)c4[nH]c(cc5nc(cc1[nH]2)C(C)=C5CC)c(C)c4C(=O)O)[C@@H](CCC(=O)O)[C@@H]3C [Talaporfin (LS11, MACE, NPs6), Talaporfin]
[1]
  Singlet Oxygen QY: 0.77
[2]; first or only peak
  Lambda Max: 400
  Epsilon: 180,000
[2]; second peak (after the slash)
  Epsilon: 40,000
  Lambda Max: 654

## IRDye 700DX HHS Ester [IR700]
[4]
  water solubility: good solubility

## Verteporfin
[2]; first or only peak
  Lambda Max: 435
  Epsilon: ~70,000
